Article PMC7851014 (Investigational New Drugs, 2020)
Read-outs that look alike come from different tables or passages of the source.

Assays:
dehydropeptidase I = conditions: cited from earlier work
ciPTEC = conditions: for detection as secondary bioactivation-metabolite of ICYS: ciPTEC
Procedure: Medium and cell lysate samples were taken at 1, 2, 3 and 4 h. Each time point was measured in duplicate. Preincubation (t0) analyte concentrations in medium were also analyzed.

[1] = Ibrutinib and SMT-conjugate pharmacokinetics in human subjects (plasma of patients A and B); conditions: for Tmax / half-life / concentration at 1.4 h / concentration at 0.5 h / concentration at 0.8 h / concentration at 22.7 h / concentration at 22.2 h / concentration at 22.6 h / concentration at 2.5 h / concentration at 3.8 h / concentration at 1.5 h / concentration at 23.3 h / concentration at 2.8 h / concentration at 4.1 h / concentration at 4.4 h / concentration at 2.4 h / concentration at 3.9 h: human; for concentration at 2.5 h: sample ID 13, T 2.5 h; for concentration at 2.5 h / concentration at 3.8 h / concentration at 2.8 h / concentration at 4.1 h / concentration at 4.4 h / concentration at 2.4 h / concentration at 3.9 h: group max; for concentration at 2.8 h: sample ID 4, T 2.8 h; for concentration at 2.4 h: sample ID 12, T 2.4 h; for concentration at 3.9 h: sample ID 17, T 3.9 h
Procedure: (§1) For analysis, 200 μL acetonitrile containing the internal standards was added to 100 μL sample. After mixing and centrifuging, 200 μL supernatant was transferred, and thereafter the solvent was partially evaporated. Before the samples were analyzed by ultra-high-performance liquid chromatography with mass spectrometer detection [21], 100 μL of mobile phase (water:acetonitrile:formic acid, 90:10:0.1 (v:v:v)) was added.
When no time was available at all, the sample was omitted. […] Pharmacokinetic (PK) data was analyzed using the PKNCA package (version 0.8.1) [22] for the statistical software R (version 3.4.2) [23] and RStudio (version 1.1.383) [24].

[2] = Human ibrutinib metabolism during CYP3A4 inhibition (patient C, plasma, concomitant voriconazole); conditions: for half-life / AUC(0-t): human, plasma, oral; for AUC(0-t): 140 mg; for Exposure relative to Sum of quantified compounds / Exposure relative to ibrutinib: patient C, AUC0-24h,ss, concomitant voriconazole
Procedure: as §1
Time-concentration data of three patients were analyzed. […] When no time was available at all, the sample was omitted. […] Pharmacokinetic (PK) data was analyzed using the PKNCA package (version 0.8.1) [22] for the statistical software R (version 3.4.2) [23] and RStudio (version 1.1.383) [24].

GST [3] = test: GST activity in ciPTEC lysate; conditions: 100 μM, pre-incubating lysate for 2.5 h
GST [4] = test system: GST; set-up: method as in PMID 8706007; conditions: cited from earlier work
BCRP = test system: BCRP; set-up: method as in PMID 27001813; conditions: cited from earlier work
[5] = Half-life of IGSH in human plasma; type: in vitro ADME; conditions: 37 °C, in vitro
[6] = Metabolism of IGSH in culture medium; type: in vitro ADME
Procedure: During ibrutinib incubations, IGSH was formed intracellularly and transported extracellularly where it was metabolized to ICGS and further to ICYS. IGSH and ICYS were mainly found intracellularly. […] Medium composition influences the metabolism of IGSH. IGSH was metabolized 32% faster in medium with 10% calf serum, when compared to serum-free samples. Medium that was pre-incubated with ciPTEC for 48 h (conditioned medium) was included in the experiments to investigate the possible role of secreted enzymes in the medium. The metabolism of IGSH to ICGS appeared to be 36% faster in conditioned medium.

ɣ-GT from equine kidney = test: ɣ-glutamyl transferase assay (conversion of IGSH to ICGS); type: biochemical; conditions: approximate kinetic parameters
Procedure: IGSH was incubated with 50 mU/L ɣ-GT in a concentration range of 10–10,000 nM in phosphate buffer (100 mM, pH 7.4) at 37 °C. Michaelis-Menten kinetics were calculated by Eadie-Hofstee transformation.

ɣ-GT [7] = test system: ɣ-GT; set-up: method as in PMID 9178957; conditions: cited from earlier work
ɣ-GT [8] = target: T1, ɣ-GT (Homo sapiens, UniProt P19440); test: ɣ-GT inhibition in ciPTEC; type: cell-based; conditions: 100 μM acivicin pre-incubation 2.5 h, 2 μM ibrutinib, 4 h, intra- and extracellularly
T1 construct: host or cells: ciPTEC (human conditionally immortalized proximal tubule epithelial cells)
Procedure: The formation of metabolites in medium and cells was monitored after 4 h. Ɣ-GT activity in human plasma and calf serum was measured on a Beckmann Coulter AU5800 (Fullerton, CA, USA) clinical chemistry analyzer, with a limit of quantitation of 1 U/L.

[9] = 420 mg, patient A, sample ID 2, T 1.4 h, 1xdd 420mg, group abs
[10] = 420 mg, patient A, sample ID 5, T 0.5 h, 1xdd 420mg, group abs
[11] = 420 mg, patient A, sample ID 6, T 0.8 h, 1xdd 420mg, group abs
[12] = 420 mg, patient A, sample ID 8, T 22.7 h, 1xdd 420mg, group trough
[13] = 420 mg, patient A, sample ID 10, T 22.2 h, 1xdd 420mg, group trough
[14] = 420 mg, patient A, sample ID 11, T 22.6 h, 1xdd 420mg, group trough
[15] = 420 mg, patient A, sample ID 14, T 3.8 h, 1xdd 420mg
[16] = 420 mg, patient A, sample ID 16, T 1.5 h, 1xdd 420mg, group abs
[17] = 420 mg, patient A, sample ID 19, T 23.3 h, 1xdd 420mg, group trough
[18] = 420 mg, patient A, sample ID 21, T 0.8 h, 1xdd 420mg, group abs
[19] = 560 mg, patient A, sample ID 3, T 0.8 h, 1xdd 560mg, group abs
[20] = 560 mg, patient B, sample ID 7, T 4.1 h, 1xdd 560mg
[21] = 560 mg, patient B, sample ID 9, T 4.4 h, 1xdd 560mg
[22] = 560 mg, patient B, sample ID 20, T 3.8 h, 1xdd 560mg
[23] = 560 mg, patient B, sample ID 23, T 4.1 h, 1xdd 560mg
[24] = 560 mg, patient B, sample ID 24, T 4.4 h, 1xdd 560mg
[25] = patient A, sample ID 15, T NA, 1xdd 420mg, omitted (no group)
[26] = patient A, sample ID 22, T NA, 1xdd 420mg, omitted (no group)

T1 sequence (P19440 whole entry): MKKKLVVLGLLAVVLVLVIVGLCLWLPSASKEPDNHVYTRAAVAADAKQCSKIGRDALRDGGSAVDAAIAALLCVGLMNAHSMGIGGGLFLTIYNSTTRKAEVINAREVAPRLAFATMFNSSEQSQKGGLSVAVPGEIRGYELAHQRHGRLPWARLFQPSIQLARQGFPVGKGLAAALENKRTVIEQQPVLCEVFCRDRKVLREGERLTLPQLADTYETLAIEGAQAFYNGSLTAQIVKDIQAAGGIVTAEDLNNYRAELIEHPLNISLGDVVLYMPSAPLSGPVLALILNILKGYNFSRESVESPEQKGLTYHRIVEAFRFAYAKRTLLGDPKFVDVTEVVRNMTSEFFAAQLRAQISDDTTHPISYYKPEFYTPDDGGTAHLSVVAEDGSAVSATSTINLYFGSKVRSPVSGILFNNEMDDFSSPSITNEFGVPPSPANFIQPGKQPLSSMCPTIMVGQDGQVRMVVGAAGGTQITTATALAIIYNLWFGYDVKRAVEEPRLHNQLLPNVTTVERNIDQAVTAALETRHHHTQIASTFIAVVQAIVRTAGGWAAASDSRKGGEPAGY

SMILES | Tmax [1] | half-life [1] | concentration at 1.4 h [1, 9] | concentration at 0.5 h [1, 10] | concentration at 0.8 h [1, 11] | concentration at 22.7 h [1, 12] | concentration at 22.2 h [1, 13] | concentration at 2.5 h ([1]; 420 mg, patient A, 1xdd 420mg) | concentration at 3.8 h [1, 15] | concentration at 0.8 h [1, 19] | concentration at 2.8 h ([1]; 560 mg, patient B, 1xdd 560mg) | concentration at 4.1 h [1, 20] | concentration at 4.4 h [1, 21] | concentration at 2.4 h ([1]; 560 mg, patient B, 1xdd 560mg) | concentration at 3.9 h ([1]; 560 mg, patient B, 1xdd 560mg) | concentration at 3.8 h [1, 22] | concentration at 4.1 h [1, 23] | concentration at 4.4 h [1, 24] | Concentration [1, 25] | Concentration [1, 26] | further results
CC1(C)C[C@@H]1C(=O)N/C(=C\CCCCSC[C@H](N)C(=O)O)C(=O)O [cilastatin] |  |  |  |  |  |  |  |  |  |  |  |  |  |  |  |  |  |  |  |  | IC50 (dehydropeptidase I): 100 µM
CSCCC(=O)N1CCC[C@@H](n2nc(-c3ccc(Oc4ccccc4)cc3)c3c(N)ncnc32)C1 [S-methyl-ibrutinib] |  |  |  |  |  |  |  |  |  |  |  |  |  |  |  |  |  |  |  |  | detection as secondary bioactivation-metabolite of ICYS (ciPTEC; after 48 h with ibrutinib): detected
Nc1ncnc2c1c(-c1ccc(Oc3ccccc3)cc1)nn2[C@@H]1CCCN(C(=O)CCSC[C@H](N)C(=O)NCC(=O)O)C1 [ICGS] | 2.6 h | 3 h | 6.7 nM | 5.4 nM | 7.3 nM | 5.6 nM | 3.7 nM | 412 nM | 72.5 nM | 9.7 nM | 160 nM | 191 nM | 88.1 nM | 73.2 nM | 226 nM | 78 nM | 239 nM | 160 nM | 5.1 nM | < LLOQ | concentration at 22.6 h [1, 14]: 3 nM; concentration at 1.5 h [1, 16]: 2.2 nM; concentration at 23.3 h [1, 17]: 0.6 nM; concentration at 0.8 h [1, 18]: 11.9 nM; half-life [2]: 40.1 h; AUC(0-t) [2]: 0.0949 µM·h; Exposure relative to Sum of quantified compounds [2]: 14%; Exposure relative to ibrutinib [2]: 29%
C=C(CC)C(=O)c1ccc(OCC(=O)O)c(Cl)c1Cl [ethacrynic acid] |  |  |  |  |  |  |  |  |  |  |  |  |  |  |  |  |  |  |  |  | effect on formation of IGSH in ciPTEC lysate (GST [3]): inhibited; IC97 (GST [4]): 15 µM
Nc1ncnc2c1c(-c1ccc(Oc3ccccc3)cc1)nn2[C@@H]1CCCN(C(=O)CCSC[C@H](N)C(=O)O)C1 [ICYS] | 4.4 h | 4.2 h | 5 nM | 5.1 nM | 5.6 nM | 6.4 nM | 5 nM | 186 nM | 32.1 nM | 3.9 nM | 92.8 nM | 170 nM | 89.2 nM | 210 nM | 143 nM | 78.7 nM | 194 nM | 210 nM | 12.1 nM | < LLOQ | concentration at 22.6 h [1, 14]: 4.7 nM; concentration at 1.5 h [1, 16]: 2.3 nM; concentration at 23.3 h [1, 17]: 2.6 nM; concentration at 0.8 h [1, 18]: 12 nM; half-life [2]: 78.3 h; AUC(0-t) [2]: 0.0877 µM·h; Exposure relative to Sum of quantified compounds [2]: 13%; Exposure relative to ibrutinib [2]: 27%
Nc1ncnc2c1c(-c1ccc(Oc3ccccc3)cc1)nn2[C@@H]1CCCN(C(=O)C(O)CO)C1 (some centres unmarked) [DHI, dihydrodiol-ibrutinib] | 3.9 h | 6.1 h | 43.9 nM | 51.6 nM | 48.3 nM | 86.6 nM | 90.7 nM | 404 nM | 195 nM | 17.5 nM | 346 nM | 523 nM | 393 nM | 450 nM | 542 nM | 524 nM | 468 nM | 484 nM | 59.3 nM | < LLOQ | concentration at 22.6 h [1, 14]: 45.3 nM; concentration at 1.5 h [1, 16]: 24 nM; concentration at 23.3 h [1, 17]: 30.5 nM; concentration at 0.8 h [1, 18]: 188 nM; half-life [2]: 59 h; AUC(0-t) [2]: 0.149 µM·h; Exposure relative to Sum of quantified compounds [2]: 23%; Exposure relative to ibrutinib [2]: 46%
C[C@@H](c1ncncc1F)[C@](O)(Cn1cncn1)c1ccc(F)cc1F [Voriconazole] |  |  |  |  |  |  |  |  |  |  |  |  |  |  |  |  |  |  |  |  | inhibition of BCRP (BCRP): some inhibition
Nc1ncnc2c1c(-c1ccc(Oc3ccccc3)cc1)nn2C1CCCN(C(=O)CCSC2OC(C(=O)O)C(O)C(O)C2O)C1 (centres unmarked) [ibrutinib-S-glucuronide] |  |  |  |  |  |  |  |  |  |  |  |  |  |  |  |  |  |  |  |  | detection as secondary bioactivation-metabolite of ICYS (ciPTEC; 4 h incubation with ibrutinib): clearly found
Nc1ncnc2c1c(-c1ccc(Oc3ccccc3)cc1)nn2[C@@H]1CCCN(C(=O)CCSC[C@H](NC(=O)CC[C@H](N)C(=O)O)C(=O)NCC(=O)O)C1 [IGSH] | 2.8 h |  |  |  |  |  |  | 1.5 nM | 0.5 nM | 0.5 nM | 3.5 nM | 1.5 nM | 0.8 nM | 0.8 nM | 1.9 nM | 0.8 nM | 2.2 nM | 1.4 nM | < LLOQ | < LLOQ | Concentration ([1]; patient A, sample ID 2, T 1.4 h, 1xdd 420mg, group abs): < LLOQ; Concentration ([1]; patient A, sample ID 5, T 0.5 h, 1xdd 420mg, group abs): < LLOQ; Concentration ([1]; patient A, sample ID 6, T 0.8 h, 1xdd 420mg, group abs): < LLOQ; Concentration ([1]; patient A, sample ID 8, T 22.7 h, 1xdd 420mg, group trough): < LLOQ; Concentration ([1]; patient A, sample ID 10, T 22.2 h, 1xdd 420mg, group trough): < LLOQ; Concentration ([1]; patient A, sample ID 11, T 22.6 h, 1xdd 420mg, group trough): < LLOQ; Concentration ([1]; patient A, sample ID 16, T 1.5 h, 1xdd 420mg, group abs): < LLOQ; Concentration ([1]; patient A, sample ID 19, T 23.3 h, 1xdd 420mg, group trough): < LLOQ; Concentration ([1]; patient A, sample ID 21, T 0.8 h, 1xdd 420mg, group abs): < LLOQ; Ctrough ([1]; patients A and B, 'trough' samples n = 4, mean ± SD (range)): <0.5 nM; uptake into ciPTEC (ciPTEC; incubating with IGSH (1 μM) directly for 4 h): no uptake; half-life at 500 nM [5]: 0.5 h; metabolism of IGSH to ICGS faster ([6]; conditioned medium (pre-incubated with ciPTEC for 48 h)): 36%; IGSH metabolized faster ([6]; medium with 10% calf serum compared to serum-free samples): 32%; Km (ɣ-GT from equine kidney): 0.588 µM; Vmax (ɣ-GT from equine kidney): 25.8 μmol∙min^−1∙U^−1
N[C@H](C(=O)O)[C@@H]1CC(Cl)=NO1 [acivicin] |  |  |  |  |  |  |  |  |  |  |  |  |  |  |  |  |  |  |  |  | IC99 (ɣ-GT [7]): 50 µM; effect on metabolism of IGSH in ciPTEC (ɣ-GT [8]): blocked
